In patent US12290596B2, “Compositions and methods for the treatment of opioid overdose” (priority 2021, dated 2025):

Assay: Two-period crossover pharmacokinetics of nalmefene 3 mg IN vs 1.0 mg IM (Example 12)
Conditions: human, plasma, plasma; for Vd/F: Vz/F; for concentration at 0.5 h: 0.500 h
[1] = im, 1 mg, Treatment B: IM 1.0 mg nalmefene hydrochloride, Geo. Mean, n=68
[2] = im, 1 mg, Treatment B: IM 1.0 mg nalmefene hydrochloride, Mean, n=68
[3] = intramuscular, 1 mg, Mean plasma concentration, Treatment B 1.0 mg IM
[4] = intramuscular, 1 mg, Median plasma concentration, Treatment B 1.0 mg IM
[5] = other: intranasal, 3 mg, Mean plasma concentration, Treatment A 3.0 mg IN
[6] = other: intranasal, 3 mg, Median plasma concentration, Treatment A 3.0 mg IN

In the case of `C=C1CC[C@@]2(O)[C@H]3Cc4ccc(O)c5c4[C@@]2(CCN3CC2CC2)[C@H]1O5` [Nalmefene, 17-cyclopropylmethyl-4,5α-epoxy-6-methylenemorphinan-3,14-diol], the AUC(0-t) (im, 1 mg, AUClast, Treatment B: IM 1.0 mg nalmefene hydrochloride, Mean, n=68) is reported as 16.3 ng·h/mL, the AUC(0-t) (im, 1 mg, AUClast, Treatment B: IM 1.0 mg nalmefene hydrochloride, Median, n=68) is reported as 15.9 ng·h/mL and the Cmax (im, 1 mg, GeoMean, Treatment B 1.0 mg IM (Ref)) is reported as 1.5 ng/mL. The Cmax [1] was 1.5 ng/mL, the Cmax [2] was 1.77 ng/mL and the Cmax (im, 1 mg, Treatment B: IM 1.0 mg nalmefene hydrochloride, Median, n=68) was 1.52 ng/mL. The half-life (im, 1 mg, T1/2, Treatment B: IM 1.0 mg nalmefene hydrochloride, Geo. Mean, n=68) was 624 min, the half-life (im, 1 mg, T1/2, Treatment B: IM 1.0 mg nalmefene hydrochloride, Mean, n=68) was 636 min and the half-life (im, 1 mg, T1/2, Treatment B: IM 1.0 mg nalmefene hydrochloride, Median, n=68) was 599 min. The Tmax (im, 1 mg, Tmax, Treatment B: IM 1.0 mg nalmefene hydrochloride, Geo. Mean, n=68) was 36.2 min, the Vd/F [1] was 894 L and the Vd/F [2] was 916 L. For the same compound, the concentration at 0 h [3] was 3.52 pg/mL, the concentration at 0.5 h [3] was 1.11 ng/mL and the concentration at 2 h [3] was 0.972 ng/mL. The concentration at 3 h [3] was 0.896 ng/mL, the concentration at 4 h [3] was 0.824 ng/mL and the concentration at 6 h [3] was 0.688 ng/mL. The concentration at 8 h [3] was 0.67 ng/mL, the concentration at 36 h [3] was 0.0968 ng/mL and the concentration at 12 h [3] was 0.538 ng/mL. For the same compound, the concentration at 18 h [3] was 0.36 ng/mL, the concentration at 24 h [3] was 0.223 ng/mL and the concentration at 48 h [3] was 0.0491 ng/mL. For the same compound, the concentration at 0 h [4] was 0 pg/mL, the concentration at 0.5 h [4] was 0.945 ng/mL and the concentration at 1 h [4] was 0.829 ng/mL. It also gave a concentration at 2 h [4] of 0.858 ng/mL, a concentration at 3 h [4] of 0.818 ng/mL and a concentration at 4 h [4] of 0.77 ng/mL. For the same compound, the concentration at 6 h [4] was 0.673 ng/mL, the concentration at 8 h [4] was 0.629 ng/mL and the concentration at 36 h [4] was 0.0915 ng/mL. For the same compound, the concentration at 12 h [4] was 0.516 ng/mL, the concentration at 18 h [4] was 0.341 ng/mL and the concentration at 24 h [4] was 0.203 ng/mL. The concentration at 48 h [4] was 0.0436 ng/mL, the half-life (other: intranasal (nasal spray), 3 mg, Plasma half-life, 3 mg IN) was roughly 660 min and the AUC(0-t) (other: intranasal, 3 mg, AUC0-5 min, GeoMean, Treatment A 3.0 mg IN (Test)) was 0.06 ng·h/mL. It also gave an AUC(0-t) (other: intranasal, 3 mg, AUC0-5 min, Treatment A: 3.0 mg nalmefene hydrochloride IN, Geo. Mean, n 66) of 0.0599 ng·h/mL, an AUC(0-t) (other: intranasal, 3 mg, AUC0-5 min, Treatment A: 3.0 mg nalmefene hydrochloride IN, Median, n 66) of 0.0546 ng·h/mL and an AUC(0-t) (other: intranasal, 3 mg, AUC0-10 min, GeoMean, Treatment A 3.0 mg IN (Test)) of 0.514 ng·h/mL. For the same compound, the AUC(0-t) (other: intranasal, 3 mg, AUC0-10 min, Treatment A: 3.0 mg nalmefene hydrochloride IN, Geo. Mean, n 66) was 0.523 ng·h/mL, the AUC(0-t) (other: intranasal, 3 mg, AUC0-10 min, Treatment A: 3.0 mg nalmefene hydrochloride IN, Mean, n 66) was 0.787 ng·h/mL and the AUC(0-t) (other: intranasal, 3 mg, AUC0-10 min, Treatment A: 3.0 mg nalmefene hydrochloride IN, Median, n 66) was 0.537 ng·h/mL. For the same compound, the AUC(0-t) (other: intranasal, 3 mg, AUC0-15 min, GeoMean, Treatment A 3.0 mg IN (Test)) was 1.19 ng·h/mL, the AUC(0-t) (other: intranasal, 3 mg, AUC0-15 min, Treatment A: 3.0 mg nalmefene hydrochloride IN, Geo. Mean, n 66) was 1.2 ng·h/mL and the AUC(0-t) (other: intranasal, 3 mg, AUC0-15 min, Treatment A: 3.0 mg nalmefene hydrochloride IN, Mean, n 66) was 1.6 ng·h/mL. The AUC(0-t) (other: intranasal, 3 mg, AUC0-15 min, Treatment A: 3.0 mg nalmefene hydrochloride IN, Median, n 66) was 1.19 ng·h/mL, the AUC(0-t) (other: intranasal, 3 mg, AUC0-20 min, GeoMean, Treatment A 3.0 mg IN (Test)) was 1.87 ng·h/mL and the AUC(0-t) (other: intranasal, 3 mg, AUC0-20 min, Treatment A: 3.0 mg nalmefene hydrochloride IN, Geo. Mean, n 66) was 1.89 ng·h/mL. It also gave an AUC(0-t) (other: intranasal, 3 mg, AUC0-20 min, Treatment A: 3.0 mg nalmefene hydrochloride IN, Mean, n 66) of 2.34 ng·h/mL, an AUC(0-t) (other: intranasal, 3 mg, AUC0-20 min, Treatment A: 3.0 mg nalmefene hydrochloride IN, Median, n 66) of 1.85 ng·h/mL and an AUC(0-t) (other: intranasal, 3 mg, AUC0-30 min, GeoMean, Treatment A 3.0 mg IN (Test)) of 3.04 ng·h/mL. The AUC(0-t) (other: intranasal, 3 mg, AUC0-30 min, Treatment A: 3.0 mg nalmefene hydrochloride IN, Geo. Mean, n 66) was 3.07 ng·h/mL, the AUC(0-t) (other: intranasal, 3 mg, AUC0-30 min, Treatment A: 3.0 mg nalmefene hydrochloride IN, Mean, n 66) was 3.55 ng·h/mL and the AUC(0-t) (other: intranasal, 3 mg, AUC0-30 min, Treatment A: 3.0 mg nalmefene hydrochloride IN, Median, n 66) was 3.04 ng·h/mL. The AUC(0-t) (other: intranasal, 3 mg, AUC0-[…], Treatment A: 3.0 mg nalmefene hydrochloride IN, Mean, n 66) was 0.0193 ng·h/mL, the AUC(0-t) (other: intranasal, 3 mg, AUCLast, GeoMean, Treatment A 3.0 mg IN (Test)) was 38.9 ng·h/mL and the AUC(0-inf) (other: intranasal, 3 mg, AUCinf, GeoMean, Treatment A 3.0 mg IN (Test)) was 40.3 ng·h/mL. The Cmax (other: intranasal, 3 mg, GeoMean, Treatment A 3.0 mg IN (Test)) was 10.3 ng/mL, the concentration at 0 h [5] was 1.46 pg/mL and the concentration at 0.5 h [5] was 6.25 ng/mL. For the same compound, the concentration at 1 h [5] was 4.64 ng/mL, the concentration at 2 h [5] was 4.03 ng/mL and the concentration at 3 h [5] was 3.17 ng/mL. For the same compound, the concentration at 4 h [5] was 2.52 ng/mL, the concentration at 6 h [5] was 1.69 ng/mL and the concentration at 8 h [5] was 1.23 ng/mL. The concentration at 36 h [5] was 0.171 ng/mL, the concentration at 12 h [5] was 0.87 ng/mL and the concentration at 18 h [5] was 0.529 ng/mL. It also gave a concentration at 24 h [5] of 0.366 ng/mL, a concentration at 48 h [5] of 0.0875 ng/mL and a concentration at 0 h [6] of 0 pg/mL. For the same compound, the concentration at 0.5 h [6] was 5.86 ng/mL, the concentration at 1 h [6] was 4.68 ng/mL and the concentration at 2 h [6] was 3.99 ng/mL. The concentration at 3 h [6] was 3.13 ng/mL, the concentration at 4 h [6] was 2.49 ng/mL and the concentration at 6 h [6] was 1.65 ng/mL. The concentration at 8 h [6] was 1.18 ng/mL, the concentration at 36 h [6] was 0.165 ng/mL and the concentration at 12 h [6] was 0.832 ng/mL. It also gave a concentration at 18 h [6] of 0.518 ng/mL, a concentration at 24 h [6] of 0.341 ng/mL and a concentration at 48 h [6] of 0.0843 ng/mL.
